Test results taken from publication PMC10304174, “Development of Zeise’s Salt Derivatives Bearing Substituted Acetylsalicylic Acid Substructures as Cytotoxic COX Inhibitors” (Pharmaceutics, 2023).

Legend:
[1] = Complex stability by capillary electrophoresis (decrease of initial complex over time); type: physicochemical; conditions: MeOH/water (50/50, v/v), 1 mM, 37 °C, CE
Protocol: The analysis was performed as previously described. A 50 mM sodium tetraborate solution (pH = 9.3, adjusted with 1 M NaOH), served as background electrolyte (BGE). Washing of novel capillaries consecutively with 1 M NaOH (45 min), water (45 min), and BGE (45 min) was performed. The hydrodynamic injection mode was utilized to introduce the samples into the capillary (50 mbar for 2 s). The capillary was kept at 25 °C, and the autosampler was thermostatted at 37 °C with an external water bath. For separation, the voltage was set to 20 kV, and the detection was carried out at the wavelength of 230 nm. Before each measurement, flushing of the capillary with 0.1 M NaOH (3 min), water (3 min), and BGE (5 min) took place. The samples were dissolved in methanol (MeOH) and further diluted in equal parts by volume with water to give a final concentration of 1 mM. Triple determinations were performed, and the half-lives (τ½) are presented as mean ± SD of ≥3 independent experiments. Samples, washing solutions, and buffers were filtered through a membrane with 0.22 µm porosity and degassed by ultrasonication before use. To simplify the reaction dynamics from a possible second-order to pseudo-first-order, one of two reactants must be present in great excess (>10 to 25-fold). If this condition is fulfilled, logarithmic plotting of the gradual decrease in the other reactant’s concentration (or increase in the concentration of a product, respectively) against the time yields a straight line, and half-lives can be calculated.
An already-established method was used to study the stability of the X-ASA-Prop-PtCl3 and X-ASA-But-PtCl3 complexes. The degradation products were separated by capillary electrophoresis using a fused-silica capillary ([…] × 75 µm, effective length: 56 cm, capillary temperature: 25 °C) and a 50 mM tetraborate buffer (pH = 9.3) as BGE. For separation, the voltage was set to 20 kV and the compounds were detected at 230 nm. Benzoic acid was used as an internal standard. Exemplary electropherograms of each complex can be found in the Supplementary Material (Figures S1–S24).
The complexes (1 mM) were dissolved in MeOH or MeOH/water (50/50, v/v) and stored at 37 °C. The decrease in the initial amount of complex was monitored time-dependently by CE, and the half-life (τ½) was calculated (Table 2).

HT-29 cells = experiment: Crystal violet assay, antiproliferative effects in HT-29 cells; type: cell-based; conditions: HT-29 (COX-1/2-positive), 72 h
Protocol: (§1) In order to investigate the cytotoxic effects in MCF-7 and HT-29 cells, an already published crystal violet assay was used. The cells (HT-29: 3 × 10^3 cells per well in 100 µL of medium; MCF-7: 2 × 10^3 cells per well in 100 µL of medium) were seeded in their exponential growth phase in completed DMEM into 96-well microtiter plates in quadruples. […] Cells were then fixed with a solution of 1% (v/v) glutaric dialdehyde in PBS. In order to determine the cell biomass, the chromatin of the attached cells was stained with crystal violet, and the bound dye was extracted with EtOH (70%). The absorbance was measured at 590 nm. Mean values ± SD of ≥2 independent experiments were calculated, and the activity of the complexes was expressed as the cell mass of the vehicle-treated control, which was set to 100%.
(§2) The compounds were investigated regarding their cytotoxicity (in vitro) employing an already published crystal violet assay. It is based on the quantification of the cell biomass of living cells by staining the chromatin. In order to evaluate the possible influence of COX inhibition on cell growth, Zeise’s salt derivatives were investigated comparatively in HT-29 and MCF-7 cell lines.

MCF-7 cells = experiment: Crystal violet assay, antiproliferative effects in MCF-7 cells; type: cell-based; conditions: MCF-7 (COX-negative), 72 h
Protocol: as §1, §2

COX-2 = molecular target: T1, COX-2 (Homo sapiens, UniProt P35354); experiment: COX Inhibitor Screening Assay (EIA) on isolated COX-2 isoenzyme; type: biochemical; conditions: for Inhibition of COX-2: 1 µM, incubation 10 min
T1 construct: purchased Cayman Chemicals
T1 sequence (P35354 18-604): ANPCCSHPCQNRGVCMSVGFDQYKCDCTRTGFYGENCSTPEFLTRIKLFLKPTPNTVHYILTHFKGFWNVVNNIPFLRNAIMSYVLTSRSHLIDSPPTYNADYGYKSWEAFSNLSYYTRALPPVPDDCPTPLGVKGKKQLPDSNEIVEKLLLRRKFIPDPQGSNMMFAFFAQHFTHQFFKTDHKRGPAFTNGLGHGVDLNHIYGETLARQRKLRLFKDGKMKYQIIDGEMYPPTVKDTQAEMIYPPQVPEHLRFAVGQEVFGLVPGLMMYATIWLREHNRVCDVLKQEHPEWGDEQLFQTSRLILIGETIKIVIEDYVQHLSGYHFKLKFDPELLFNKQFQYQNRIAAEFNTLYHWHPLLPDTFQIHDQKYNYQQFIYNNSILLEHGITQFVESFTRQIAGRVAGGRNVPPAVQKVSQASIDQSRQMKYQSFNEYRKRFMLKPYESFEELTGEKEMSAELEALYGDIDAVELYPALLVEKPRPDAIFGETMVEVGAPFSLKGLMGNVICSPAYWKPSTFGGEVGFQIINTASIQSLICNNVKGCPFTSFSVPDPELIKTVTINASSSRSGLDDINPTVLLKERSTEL
Protocol: The incubation of the respective complexes with the isoenzymes was exactly 10 min. The values of COX inhibition were calculated as the mean of duplicates and shown as the mean ± SD of ≥2 independent experiments.

SMILES	Half-life (τ½) [1] [h]	IC50 (HT-29 cells) [µM]	IC50 (MCF-7 cells) [µM]	COX-2 selectivity (COX-2; from inhibition at 1 µM, COX-2 over COX-1) [fold]	Inhibition of COX-2 (COX-2) [%]
CC(=O)Oc1cccc(Cl)c1C(=O)OC[CH]1[CH2][Pt-]1([Cl])([Cl])[Cl].[K+] (centres unmarked) [6-Cl-ASA-Prop-PtCl3, Potassium trichlorido[η^2-(prop-2-en-1-yl)-2-acetoxy-6-chlorobenzoate]platinate(II)]	0.658 ± 0.0317	38.4 ± 3.4	85.9 ± 9.2		
CC(=O)Oc1c(F)cccc1C(=O)OCC[CH]1[CH2][Pt-]1([Cl])([Cl])[Cl].[K+] (centres unmarked) [3-F-ASA-But-PtCl3, Potassium trichlorido[η^2-(but-3-en-1-yl)-2-acetoxy-3-fluorobenzoate]platinate(II)]	51.9 ± 2.5	69.4 ± 1.5	97.4 ± 17.6		
CC(=O)Oc1c(C)cccc1C(=O)OCC[CH]1[CH2][Pt-]1([Cl])([Cl])[Cl].[K+] (centres unmarked) [3-CH3-ASA-But-PtCl3, Potassium trichlorido[η^2-(but-3-en-1-yl)-2-acetoxy-3-methylbenzoate]platinate(II)]	45.9 ± 6.0	18 ± 2.4	45.6 ± 7.2		
N.N.[Cl][Pt][Cl] [Cisplatin, reference compound]		2.6 ± 0.1	3.7 ± 0.3		
CC(=O)Oc1ccc(Cl)cc1C(=O)OCC[CH]1[CH2][Pt-]1([Cl])([Cl])[Cl].[K+] (centres unmarked) [5-Cl-ASA-But-PtCl3, Potassium trichlorido[η^2-(but-3-en-1-yl)-2-acetoxy-5-chlorobenzoate]platinate(II)]	62.4 ± 1.6	49.1 ± 6.2	28.2 ± 4.5		
CC(=O)Oc1ccc(F)cc1C(=O)OCC[CH]1[CH2][Pt-]1([Cl])([Cl])[Cl].[K+] (centres unmarked) [5-F-ASA-But-PtCl3, Potassium trichlorido[η^2-(but-3-en-1-yl)-2-acetoxy-5-fluorobenzoate]platinate(II)]	48.1 ± 4.3	75.8 ± 13.2	93.8 ± 10.8		
CC(=O)Oc1cc(Cl)ccc1C(=O)OC[CH]1[CH2][Pt-]1([Cl])([Cl])[Cl].[K+] (centres unmarked) [4-Cl-ASA-Prop-PtCl3, Potassium trichlorido[η^2-(prop-2-en-1-yl)-2-acetoxy-4-chlorobenzoate]platinate(II)]	0.545 ± 0.03	89.8 ± 23.9	70.7 ± 3.6	1.5	
CC(=O)Oc1cc(F)ccc1C(=O)OC[CH]1[CH2][Pt-]1([Cl])([Cl])[Cl].[K+] (centres unmarked) [4-F-ASA-Prop-PtCl3, Potassium trichlorido[η^2-(prop-2-en-1-yl)-2-acetoxy-4-fluorobenzoate]platinate(II)]	0.535 ± 0.0183	107 ± 3.1	150 ± 33.6		17.5
CC(=O)Oc1c(Cl)cccc1C(=O)OCC[CH]1[CH2][Pt-]1([Cl])([Cl])[Cl].[K+] (centres unmarked) [3-Cl-ASA-But-PtCl3, Potassium trichlorido[η^2-(but-3-en-1-yl)-2-acetoxy-3-chlorobenzoate]platinate(II)]	47.0 ± 14.0	43 ± 10.9	33.5 ± 1.9		
CC(=O)Oc1cc(C)ccc1C(=O)OCC[CH]1[CH2][Pt-]1([Cl])([Cl])[Cl].[K+] (centres unmarked) [4-CH3-ASA-But-PtCl3, Potassium trichlorido[η^2-(but-3-en-1-yl)-2-acetoxy-4-methylbenzoate]platinate(II)]	65.7 ± 7.2	27.1 ± 1.5	38.8 ± 6.5		
CC(=O)Oc1cccc(C)c1C(=O)OCC[CH]1[CH2][Pt-]1([Cl])([Cl])[Cl].[K+] (centres unmarked) [6-CH3-ASA-But-PtCl3, Potassium trichlorido[η^2-(but-3-en-1-yl)-2-acetoxy-6-methylbenzoate]platinate(II)]	35.0 ± 3.7	20.2 ± 0.2	35.3 ± 0.9		
CC(=O)Oc1cccc(Cl)c1C(=O)OCC[CH]1[CH2][Pt-]1([Cl])([Cl])[Cl].[K+] (centres unmarked) [6-Cl-ASA-But-PtCl3, Potassium trichlorido[η^2-(but-3-en-1-yl)-2-acetoxy-6-chlorobenzoate]platinate(II)]	51.8 ± 7.7	57.5 ± 19.2	42.3 ± 8.3		
CC(=O)Oc1c(C)cccc1C(=O)OC[CH]1[CH2][Pt-]1([Cl])([Cl])[Cl].[K+] (centres unmarked) [3-CH3-ASA-Prop-PtCl3, Potassium trichlorido[η^2-(prop-2-en-1-yl)-2-acetoxy-3-methylbenzoate]platinate(II)]	0.585 ± 0.0383	27.8 ± 3.4	71.4 ± 3.1		
CC(=O)Oc1c(F)cccc1C(=O)OC[CH]1[CH2][Pt-]1([Cl])([Cl])[Cl].[K+] (centres unmarked) [3-F-ASA-Prop-PtCl3, Potassium trichlorido[η^2-(prop-2-en-1-yl)-2-acetoxy-3-fluorobenzoate]platinate(II)]	0.508 ± 0.0233	86.9 ± 3.9	85.2 ± 21.8		20.7
CC(=O)Oc1cc(F)ccc1C(=O)OCC[CH]1[CH2][Pt-]1([Cl])([Cl])[Cl].[K+] (centres unmarked) [4-F-ASA-But-PtCl3, Potassium trichlorido[η^2-(but-3-en-1-yl)-2-acetoxy-4-fluorobenzoate]platinate(II)]	49.9 ± 4.5	89.2 ± 3.5	105.9 ± 0.4		
CC(=O)Oc1cccc(F)c1C(=O)OCC[CH]1[CH2][Pt-]1([Cl])([Cl])[Cl].[K+] (centres unmarked) [6-F-ASA-But-PtCl3, Potassium trichlorido[η^2-(but-3-en-1-yl)-2-acetoxy-6-fluorobenzoate]platinate(II)]	34.6 ± 1.5	99.7 ± 0.4	92.6 ± 23.8		
CC(=O)Oc1cccc(F)c1C(=O)OC[CH]1[CH2][Pt-]1([Cl])([Cl])[Cl].[K+] (centres unmarked) [6-F-ASA-Prop-PtCl3, Potassium trichlorido[η^2-(prop-2-en-1-yl)-2-acetoxy-6-fluorobenzoate]platinate(II)]	0.485 ± 0.005	114 ± 7.1	≥ 200		
CC(=O)Oc1cccc(C)c1C(=O)OC[CH]1[CH2][Pt-]1([Cl])([Cl])[Cl].[K+] (centres unmarked) [6-CH3-ASA-Prop-PtCl3, Potassium trichlorido[η^2-(prop-2-en-1-yl)-2-acetoxy-6-methylbenzoate]platinate(II)]	0.747 ± 0.0183	27.4 ± 1.4	76.2 ± 1.4		
CC(=O)Oc1ccc(F)cc1C(=O)OC[CH]1[CH2][Pt-]1([Cl])([Cl])[Cl].[K+] (centres unmarked) [5-F-ASA-Prop-PtCl3, Potassium trichlorido[η^2-(prop-2-en-1-yl)-2-acetoxy-5-fluorobenzoate]platinate(II)]	0.46 ± 0.02	110 ± 21.7	106 ± 4.1		
